Test results: ChEMBL document CHEMBL4725292 (J Med Chem, 2020)
pIC50, pKd: −log10 of the molar value. Activity calls are given as the source filed them. No cut-off for these calls is given here.

Columns and labels:
B cell [1] = test: Downregulation of Ig-G secretion in human B cells cocultured with human PBMC at 0.37 to 10 uM preincubated for 1 hr followed by anti-IgM and TCR stimulation and measured after 84 hrs by ELISA; format: functional, cell-based; settings: dose microM 0.37-10, time 1.0 hrs
[2] = target: T1, Bromodomain-containing protein 2 (Homo sapiens, UniProt P25440); test: Binding affinity to human partial length BRD2 bromodomain 2 isoform 1 (E348 to D455 residues) expressed in bacterial expression system by BROMOscan assay
[3] = target: T2, Transcription intermediary factor 1-alpha (Homo sapiens, UniProt O15164); test: Binding affinity to human partial length TRIM24 (P790 to P977 residues) expressed in bacterial expression system by BROMOscan assay
T2 sequence (O15164 whole entry): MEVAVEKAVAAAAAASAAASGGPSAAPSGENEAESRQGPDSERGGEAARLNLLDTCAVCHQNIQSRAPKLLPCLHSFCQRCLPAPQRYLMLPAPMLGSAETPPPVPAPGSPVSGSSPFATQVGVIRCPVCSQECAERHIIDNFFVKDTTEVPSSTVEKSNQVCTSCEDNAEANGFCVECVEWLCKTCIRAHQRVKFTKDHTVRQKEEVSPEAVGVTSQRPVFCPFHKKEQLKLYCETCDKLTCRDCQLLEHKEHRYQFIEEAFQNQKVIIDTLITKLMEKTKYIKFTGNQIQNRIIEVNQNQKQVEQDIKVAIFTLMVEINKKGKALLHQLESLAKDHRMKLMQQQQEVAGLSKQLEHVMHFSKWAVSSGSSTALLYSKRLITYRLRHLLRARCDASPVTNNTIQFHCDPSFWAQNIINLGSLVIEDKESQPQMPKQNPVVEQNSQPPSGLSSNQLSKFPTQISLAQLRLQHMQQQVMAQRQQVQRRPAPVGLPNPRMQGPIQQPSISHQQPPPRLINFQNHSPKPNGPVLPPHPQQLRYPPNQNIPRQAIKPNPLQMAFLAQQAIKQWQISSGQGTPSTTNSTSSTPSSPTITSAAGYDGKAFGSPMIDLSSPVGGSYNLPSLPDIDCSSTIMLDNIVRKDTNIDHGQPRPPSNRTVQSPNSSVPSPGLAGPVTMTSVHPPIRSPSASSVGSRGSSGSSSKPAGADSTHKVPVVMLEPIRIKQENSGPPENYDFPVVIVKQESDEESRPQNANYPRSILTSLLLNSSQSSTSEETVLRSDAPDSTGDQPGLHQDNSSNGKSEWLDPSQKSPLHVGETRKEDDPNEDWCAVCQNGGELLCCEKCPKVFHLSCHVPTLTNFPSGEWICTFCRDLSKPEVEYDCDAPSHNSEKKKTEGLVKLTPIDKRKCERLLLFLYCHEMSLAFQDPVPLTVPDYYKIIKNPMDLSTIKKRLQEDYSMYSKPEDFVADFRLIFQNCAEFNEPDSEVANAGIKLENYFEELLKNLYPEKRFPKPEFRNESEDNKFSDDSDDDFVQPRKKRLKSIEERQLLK

Blood = test: Inhibition of LPS-induced MCP1 production in human whole blood preincubated for 30 mins followed by LPS addition and measured after overnight incubation by mesoscale assay; format: functional, tissue-based
[4] = target: Bromodomain adjacent to zinc finger domain protein 2A (Homo sapiens, UniProt Q9UIF9); test: Binding affinity to human partial length BAZ2A (M1792 to L1905 residues) expressed in bacterial expression system by BROMOscan assay
[5] = target: T3, Bromodomain testis-specific protein (Homo sapiens, UniProt Q58F21); test: Binding affinity to human partial length BRDT bromodomain 2 (K250 to E382 residues) expressed in bacterial expression system by bromoscan assay
[6] = target: T3, Bromodomain testis-specific protein; test: Binding affinity to human partial length BRDT bromodomain 1 (N21 to E137 residues) expressed in bacterial expression system by bromoscan assay
B cell [7] = test: Downregulation of IL-17F secretion in human B cells cocultured with human PBMC at 0.37 to 10 uM preincubated for 1 hr followed by anti-IgM and TCR stimulation and measured after 84 hrs by ELISA; format: functional, cell-based; settings: dose microM 0.37-10, time 1.0 hrs
[8] = target: T1, Bromodomain-containing protein 2; test: Binding affinity to human partial length BRD2 bromodomain 1 long isoform (K71 to N194 residues) expressed in bacterial expression system by BROMOscan assay
[9] = target: Bromodomain-containing protein 3 (Homo sapiens, UniProt Q15059); test: Binding affinity to full length BRD3 BD2 in human HuT78 cell lysates incubated for 45 mins by liquid chromatography-mass spectrometry based chemoproteomic binding assay; format: subcellular
[10] = target: Transcription initiation factor TFIID subunit 1 (Homo sapiens, UniProt P21675); test: Binding affinity to full length TAF1 in human HuT78 cell lysates incubated for 45 mins by liquid chromatography-mass spectrometry based chemoproteomic binding assay; format: subcellular
THP-1 = test: Antiproliferative activity against human THP-1 cells after 72 hrs by cell titer glo assay; format: functional, cell-based; settings: THP-1, 72 h

T1 sequence (P25440 whole entry, the tested form may be a part, canonical isoform): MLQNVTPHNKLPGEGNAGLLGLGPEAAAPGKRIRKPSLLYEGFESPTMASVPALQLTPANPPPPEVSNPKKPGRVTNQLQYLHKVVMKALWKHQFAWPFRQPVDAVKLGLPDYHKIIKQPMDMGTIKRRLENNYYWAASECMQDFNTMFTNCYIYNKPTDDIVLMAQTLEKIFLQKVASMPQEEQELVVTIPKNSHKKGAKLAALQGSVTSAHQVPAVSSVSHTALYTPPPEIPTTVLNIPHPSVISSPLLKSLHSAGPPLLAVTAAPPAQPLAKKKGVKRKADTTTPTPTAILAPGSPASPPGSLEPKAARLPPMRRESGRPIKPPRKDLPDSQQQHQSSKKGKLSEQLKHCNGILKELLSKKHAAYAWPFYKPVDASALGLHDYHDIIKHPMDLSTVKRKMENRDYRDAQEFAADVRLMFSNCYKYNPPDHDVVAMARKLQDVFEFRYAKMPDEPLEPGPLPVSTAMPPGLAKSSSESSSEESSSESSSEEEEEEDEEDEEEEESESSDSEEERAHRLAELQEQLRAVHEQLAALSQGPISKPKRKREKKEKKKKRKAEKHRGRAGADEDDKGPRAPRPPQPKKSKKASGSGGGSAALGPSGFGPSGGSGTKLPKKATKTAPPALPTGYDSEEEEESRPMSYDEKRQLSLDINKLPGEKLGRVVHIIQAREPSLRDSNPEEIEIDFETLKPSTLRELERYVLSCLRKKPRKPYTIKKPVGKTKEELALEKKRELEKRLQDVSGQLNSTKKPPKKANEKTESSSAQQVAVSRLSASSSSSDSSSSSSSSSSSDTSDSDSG
Bromodomain-containing protein 3, sequence (Q15059 whole entry): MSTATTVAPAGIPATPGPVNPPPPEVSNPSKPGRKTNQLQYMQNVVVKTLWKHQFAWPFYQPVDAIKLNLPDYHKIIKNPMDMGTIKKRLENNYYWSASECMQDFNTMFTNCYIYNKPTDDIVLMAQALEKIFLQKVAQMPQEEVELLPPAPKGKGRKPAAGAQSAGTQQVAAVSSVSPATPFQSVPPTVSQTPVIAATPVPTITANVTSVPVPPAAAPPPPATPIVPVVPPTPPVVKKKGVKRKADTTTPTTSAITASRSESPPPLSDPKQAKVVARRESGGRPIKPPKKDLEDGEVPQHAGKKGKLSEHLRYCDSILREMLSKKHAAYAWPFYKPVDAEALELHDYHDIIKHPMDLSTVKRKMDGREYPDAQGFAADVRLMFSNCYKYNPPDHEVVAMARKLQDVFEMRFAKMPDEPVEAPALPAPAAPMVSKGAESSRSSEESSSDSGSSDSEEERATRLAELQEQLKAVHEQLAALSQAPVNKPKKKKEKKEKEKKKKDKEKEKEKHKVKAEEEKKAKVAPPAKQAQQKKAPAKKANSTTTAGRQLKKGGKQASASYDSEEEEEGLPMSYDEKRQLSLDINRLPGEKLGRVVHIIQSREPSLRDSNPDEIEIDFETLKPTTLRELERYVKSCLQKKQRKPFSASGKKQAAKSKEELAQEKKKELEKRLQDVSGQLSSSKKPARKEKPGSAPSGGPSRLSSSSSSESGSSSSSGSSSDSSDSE
Bromodomain adjacent to zinc finger domain protein 2A, sequence (Q9UIF9 whole entry, the tested form may be a part): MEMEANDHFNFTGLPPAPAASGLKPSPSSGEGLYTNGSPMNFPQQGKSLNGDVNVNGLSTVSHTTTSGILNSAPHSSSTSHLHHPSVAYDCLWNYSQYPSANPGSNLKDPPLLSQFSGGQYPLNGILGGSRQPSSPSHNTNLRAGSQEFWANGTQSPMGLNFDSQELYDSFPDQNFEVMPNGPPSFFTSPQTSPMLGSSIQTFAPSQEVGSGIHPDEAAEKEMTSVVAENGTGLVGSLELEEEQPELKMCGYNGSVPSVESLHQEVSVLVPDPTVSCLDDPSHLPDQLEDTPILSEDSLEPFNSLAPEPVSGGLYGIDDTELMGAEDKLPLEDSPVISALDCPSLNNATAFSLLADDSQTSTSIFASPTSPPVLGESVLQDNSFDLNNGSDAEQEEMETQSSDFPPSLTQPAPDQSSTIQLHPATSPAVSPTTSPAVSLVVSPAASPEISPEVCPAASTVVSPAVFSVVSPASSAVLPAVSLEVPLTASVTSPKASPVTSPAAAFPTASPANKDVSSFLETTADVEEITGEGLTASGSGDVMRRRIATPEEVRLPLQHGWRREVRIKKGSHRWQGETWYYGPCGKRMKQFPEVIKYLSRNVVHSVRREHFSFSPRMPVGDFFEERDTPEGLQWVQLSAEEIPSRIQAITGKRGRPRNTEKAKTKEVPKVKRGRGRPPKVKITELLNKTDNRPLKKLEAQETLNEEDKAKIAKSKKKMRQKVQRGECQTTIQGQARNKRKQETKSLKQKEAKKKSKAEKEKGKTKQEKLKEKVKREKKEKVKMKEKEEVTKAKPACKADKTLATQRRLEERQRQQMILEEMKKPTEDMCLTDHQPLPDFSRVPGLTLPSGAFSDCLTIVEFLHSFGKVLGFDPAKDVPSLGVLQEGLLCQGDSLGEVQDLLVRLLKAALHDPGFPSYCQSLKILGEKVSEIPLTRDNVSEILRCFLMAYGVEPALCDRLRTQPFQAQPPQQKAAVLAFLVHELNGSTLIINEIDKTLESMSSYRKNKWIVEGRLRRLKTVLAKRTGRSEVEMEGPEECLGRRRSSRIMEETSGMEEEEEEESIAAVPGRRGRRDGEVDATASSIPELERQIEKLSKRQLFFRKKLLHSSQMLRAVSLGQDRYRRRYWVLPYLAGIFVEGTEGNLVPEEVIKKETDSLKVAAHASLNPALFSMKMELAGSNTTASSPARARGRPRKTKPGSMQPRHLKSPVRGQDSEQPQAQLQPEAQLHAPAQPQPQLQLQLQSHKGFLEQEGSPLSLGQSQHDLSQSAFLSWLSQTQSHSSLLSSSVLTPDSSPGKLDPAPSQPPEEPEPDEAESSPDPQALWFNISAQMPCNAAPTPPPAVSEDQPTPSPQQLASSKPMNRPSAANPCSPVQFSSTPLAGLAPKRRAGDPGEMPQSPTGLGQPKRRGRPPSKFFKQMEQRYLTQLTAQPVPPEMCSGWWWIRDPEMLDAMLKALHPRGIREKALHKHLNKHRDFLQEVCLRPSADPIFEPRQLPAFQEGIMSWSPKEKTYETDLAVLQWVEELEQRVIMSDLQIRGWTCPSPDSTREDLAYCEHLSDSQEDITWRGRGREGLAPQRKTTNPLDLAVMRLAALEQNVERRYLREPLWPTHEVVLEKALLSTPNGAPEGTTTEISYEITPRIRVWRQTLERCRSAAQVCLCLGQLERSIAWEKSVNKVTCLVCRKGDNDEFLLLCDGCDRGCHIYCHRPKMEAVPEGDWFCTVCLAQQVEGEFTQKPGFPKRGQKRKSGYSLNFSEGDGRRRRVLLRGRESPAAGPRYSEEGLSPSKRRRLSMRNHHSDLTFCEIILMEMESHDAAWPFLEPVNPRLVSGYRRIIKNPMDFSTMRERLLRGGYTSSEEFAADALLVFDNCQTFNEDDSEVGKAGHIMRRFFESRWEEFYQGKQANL

pKd [2]: 4.60
pKd [3]: 4.70
pIC50 (Blood): 6.17
pKd [4]: 4.80
pKd [5]: 4.70
pKd [6]: 7.70
pKd [8]: 7.70
pKd [9]: 5.20
pIC50 [10]: < 5.00
pIC50 (THP-1): 6.80
SMILES: Cc1cc2c(-c3ccco3)cnc(N[C@@H]3CCN(C)C[C@H]3C(=O)NC3CCCCC3)c2[nH]c1=O [GSK789]
Activity (B cell [1]): Active
Activity (B cell [7]): Active
